Data from patent publication US20230115176A1 (Ra Pharmaceuticals, Inc., priority 2019, published 2023).
≈ marks a conversion by molar mass, not a printed value.

What was measured:
Human C5 [1] = biological target: T1, Human C5 (Homo sapiens, UniProt P01031); assay: Red blood cell (RBC) hemolysis assay, luminescent (Example 13, Table 22); assay type: cell-based; details: sheep EA cells, […] C5-depleted human serum, 0.5 nM human C5, 1 hour 37° C., luminescence
T1 construct: purchased Complement Technology
Text: Compound CU0136 is a racemic mixture of Compound CU0186 and CU0187. Numbers in parenthesis following compound numbers indicate alternate enantiomers (as distinguished by retention time during chromatographical separation).

[2] = Kinetic solubility in PBS pH 7.4, HPLC-UV (Example 21, Table 27); assay type: physicochemical; details: phosphate buffered saline, aqueous buffer, kinetic from dmso stock, 0.5 M PBS, shaken minimum 24 h at approximately 25° C., HPLC-UV 270 nm
Procedure, shortened: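 10 mM DMSO stock diluted into 0.05 M PBS pH 7.4 (5% DMSO final), in triplicate, shaken ≥24 h at ~25 °C, then filtered by centrifugation. Supernatant concentration by HPLC-UV at 270 nm against external DMSO standards (15.6–500.0 μM).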

[3] = Permeability assay, unidirectional transport, Papp (Example 30, Table 34); assay type: in vitro ADME, canine; details: dog, pH 7.4; MDCK-WT cell monolayers, A-to-B, 3 μM test compound, 37° C., duplicate determinations
Description: (§1) Permeability assays were carried out to provide a preliminary indication of suitability for oral dosing and compound permeability across the blood brain barrier. Unidirectional and bidirectional compound transport across Madin Darby canine kidney (MDCK) cell monolayers was assessed. For unidirectional transport assessment, transport across MDCK wild type (MDCK-WT) cell monolayers was assessed. For bidirectional transport, transport across MDCK-MDR1 cell monolayers was assessed. MDCK-MDR1 cells express the MDR1 gene encoding the P-glycoprotein (P-gp) efflux protein.
(§2) MDCK-WT and MDCK-MDR1 cells were plated onto permeable polycarbonate supports in 12-well Costar transwell plates and allowed to grow and differentiate for 3 days. After 3 days in culture, the culture medium (DMEM supplemented with 10% FBS) was removed from both sides of the transwell inserts and cells were rinsed with warm HBSS. After the rinse step, the chambers were filled with warm transport buffer (HBSS containing 10 mM HEPES, 0.25% BSA, pH 7.4) and the plates were pre-incubated at 37° C. for 30 minutes prior to TEER (Trans Epithelial Electric Resistance) measurements.
(§3) The buffer in the donor chamber (apical side for A-to-B assay, basolateral side for B-to-A assay) was removed and replaced with the working solution (3 μM test compound and 10 μM for control compounds in transport buffer). The plates were then placed at 37° C. under light agitation. At designated time points (30, 60 and 90 min), an aliquot of transport buffer from the receiver chamber was removed and replenished with fresh transport buffer. Samples were quenched with ice-cold ACN containing internal standard and then centrifuged to pellet protein. Resulting supernatants were further diluted with 50/50 ACN/H2O (Atenolol diluted in just water) and submitted for LC-MS/MS analysis. Apparent permeability (Pap) values were calculated from duplicate determinations. Atenolol and propranolol were tested as low and […] permeability references.
Papp values indicate extent of compound permeation across monolayers.

[4] = tested on: P-glycoprotein (P-gp, MDR1); assay: Permeability assay, bidirectional transport, efflux ratio (Example 30, Table 34); assay type: in vitro ADME, canine; details: dog, MDCK-MDR1, pH 7.4; read-out: MDCK-MDR efflux ratio
Description: as §1, §2, §3
Efflux ratios were calculated for bidirectional transport across MDCK-MDR1 cell monolayers as an indication of compound efflux by P-gp. The efflux ratio is calculated using the ratio of mean Papp values for B to A transport to mean Papp values for A to B transport [Papp(BA)/Papp(AB)].

Human C5 [5] = biological target: T1, Human C5; assay: Surface plasmon resonance (SPR), compounds on immobilized human C5 (Example 2, Table 5); assay type: binding; details: lowest value where a range of compound concentrations were analyzed
Human C5 [6] = biological target: T1, Human C5; assay: Hemolysis assay, luminescent, classical complement pathway (Example 4, Table 7); assay type: cell-based; details: sheep EA cells, 1.5% C5-depleted human serum, 0.5 nM human C5, luminescence readout
Text: (§4) Numbers in parenthesis following the compound number indicate alternate enantiomers (as distinguished by retention time during chromatographical separation).

[7] = biological target: T2, human C5 complement protein (Homo sapiens, UniProt P01031); assay: Surface plasmon resonance (SPR), immobilized human C5, 37° C. (Example 18, Table 24); assay type: binding; details: lowest value obtained where a range of concentrations was analyzed
purified human C5 = purified human C5 (Homo sapiens, UniProt P01031); assay: Red blood cell hemolysis assay, optical, absorbance 412 nm (Example 3, Table 6); assay type: cell-based; details: antibody-sensitized sheep erythrocytes, 1.5% human C5 depleted sera, 0.5 nM human C5; average where replicates
Description: Experiments were carried out using a red blood cell (RBC) hemolysis assay to assess compound inhibition of RBC lysis. […] The assay was carried out using 1.5% human C5 depleted sera and 0.5 nM purified human C5.
GVB++ buffer (Complement Technology, Tyler, Tex.) was heated at 37° C. for a minimum of 20 minutes. The human C5 depleted sera and purified human C5 were rapidly thawed at 37° C. and then stored on ice or wet ice, respectively. The compound stock (10 mM, DMSO) was serially diluted in 100% DMSO to obtain ten 6-fold dilutions before addition of GVB++. Sera dilution was prepared by adding 5 mL of GVB++ to a 15 mL conical tube, removing 600 μL of the GVB++ and adding 600 μL of the 100% sera. The tube was mixed by inverting three times. A volume of 25 μL of the diluted sera was added to each well so that the final concentration of sera in the well was 1.5%. C5 dilution was prepared by adding 5 mL of GVB++ to a 15 mL conical tube, removing 4 μL of the GVB++ and adding 4 μL of the C5 stock. The tube was mixed by inverting three times. A volume of 25 μL was added to each well so that the final amount of C5 was 0.5 nM in each well. The antibody-sensitized sheep erythrocytes (EAs) were centrifuged at 1,000× gravity at 22° C. for 3 minutes. The supernatant was pipetted off without disrupting the pellet. The pellet was then resuspended in GVB++ with the same volume removed. Resuspended EAs were mixed by gently inverting the tube.
Five controls were run on each plate: (1) EAs only=100 μL EAs+50 μL GVB++ with 4% DMSO+50 μL GVB++; (2) EA+Sera=100 μL EAs+50 μL GVB++ with 4% DMSO+25 μL Sera dilution+25 μL GVB++; (3) EA+C5=100 μL EAs+50 μL GVB++ with 4% DMSO+25 μL C5 dilution+25 μL GVB++; (4) EA+Sera+C5=100 μL EAs+50 μL GVB++ with 4% DMSO+25 μL Sera dilution+25 μL C5; (5) GVB++ Only=200 μL GVB++. Other wells included: GVB++ with 4% DMSO=20 μL DMSO+480 μL GVB++. All samples were analyzed in duplicate. The compound dose response curve was generated using samples prepared with 100 μL EA+50 μL compound dilution+25 μL C5 dilution+25 μL sera dilution.
Test plates were prepared by adding 100 μL of EAs, 50 μL of compound dilution, 25 μL of sera dilution, and 25 μL of C5 dilution to individual wells of a 96-well tissue culture-treated clear microtitre plate (USA Scientific, Ocala, Fla.) and resuspending by pipetting up and down three times. The samples were incubated at 37° C. for one hour. At the completion of the incubation, the plates were centrifuged at 1,000× gravity for 3 minutes. 100 μl of supernatant were transferred to a new plate and the absorbance was read at 412 nm. Data was fit with a log-logit formula producing a dose-response curve and IC50.
“IC50” refers to the half maximal inhibitory concentration, where the value is the concentration of the inhibitor needed to reduce red blood cell hemolysis by half. Where replicate analysis was conducted, average IC50 values are provided along with standard deviation (SD) values.

Human C5 [8] = biological target: T1, Human C5; assay: Red blood cell (RBC) hemolysis assay, luminescent (Example 28, Table 32); assay type: cell-based; details: sheep EA cells, 1.5% C5-depleted human serum, 0.5 nM human C5, 1 hour at 37° C., luminescence (Table 32)
Description: Sheep red blood cells coated with rabbit anti-sheep erythrocyte antiserum (EA cells; Complement Technology, Tyler, Tex.) were used to assay compound inhibitory activity of the classical complement activation pathway. Briefly, the EA cells were washed once and resuspended in the same volume of GVB++ buffer (Complement Technology, Tyler, Tex.). 25 μL of EA cells were then distributed into each well of 384-well tissue culture plates using Apricot iPipette Pro (Apricot Designs; Covina, Calif.). Compounds were tested in 10 points of final concentrations ranging from 16.67 μM to 1.65 μM in a 6-fold titration series. Compounds were dispensed into 384-well plates from 6.7 mM and 3.35 μM DMSO working stocks using an HP Digital Dispenser (HP; Corvallis, Oreg.). The reactions also contained 1.5% (v/v) C5-depleted human serum (Complement Technology). Hemolysis was induced by addition of human C5 (Complement Technology) at a concentration of 0.5 nM and plates were incubated for 1 hour at 37° C. in a cell culture incubator. The extent of hemolysis was measured by ability of released hemoglobin to catalyze luminol in the presence of hydrogen peroxide. Luminescence was then measured using a plate reader. Luminescence measurements were used to prepare a dose-response curve. From the curve, the half maximal inhibitory concentration (IC50) for each compound was determined, where the IC50 represents the concentration of each compound needed to reduce red blood cell hemolysis by half.

[9] = biological target: T2, human C5 complement protein; assay: Surface plasmon resonance (SPR), immobilized human C5, 37° C. (Example 27, Table 31); assay type: binding; details: lowest value obtained where a range of concentrations was analyzed (Table 31)
[10] = biological target: T2, human C5 complement protein; assay: Surface plasmon resonance (SPR), immobilized human C5, 37° C. (Example 23, Table 28); assay type: binding; details: lowest value obtained where a range of concentrations was analyzed (Table 28)
Human C5 [11] = biological target: T1, Human C5; assay: Red blood cell (RBC) hemolysis assay, luminescent (Example 24, Table 29); assay type: cell-based; details: sheep EA cells, […] C5-depleted human serum, 0.5 nM human C5, 1 hour at 37° C., luminescence (Table 29)
Text: as §4

T1 sequence (P01031 19-1676): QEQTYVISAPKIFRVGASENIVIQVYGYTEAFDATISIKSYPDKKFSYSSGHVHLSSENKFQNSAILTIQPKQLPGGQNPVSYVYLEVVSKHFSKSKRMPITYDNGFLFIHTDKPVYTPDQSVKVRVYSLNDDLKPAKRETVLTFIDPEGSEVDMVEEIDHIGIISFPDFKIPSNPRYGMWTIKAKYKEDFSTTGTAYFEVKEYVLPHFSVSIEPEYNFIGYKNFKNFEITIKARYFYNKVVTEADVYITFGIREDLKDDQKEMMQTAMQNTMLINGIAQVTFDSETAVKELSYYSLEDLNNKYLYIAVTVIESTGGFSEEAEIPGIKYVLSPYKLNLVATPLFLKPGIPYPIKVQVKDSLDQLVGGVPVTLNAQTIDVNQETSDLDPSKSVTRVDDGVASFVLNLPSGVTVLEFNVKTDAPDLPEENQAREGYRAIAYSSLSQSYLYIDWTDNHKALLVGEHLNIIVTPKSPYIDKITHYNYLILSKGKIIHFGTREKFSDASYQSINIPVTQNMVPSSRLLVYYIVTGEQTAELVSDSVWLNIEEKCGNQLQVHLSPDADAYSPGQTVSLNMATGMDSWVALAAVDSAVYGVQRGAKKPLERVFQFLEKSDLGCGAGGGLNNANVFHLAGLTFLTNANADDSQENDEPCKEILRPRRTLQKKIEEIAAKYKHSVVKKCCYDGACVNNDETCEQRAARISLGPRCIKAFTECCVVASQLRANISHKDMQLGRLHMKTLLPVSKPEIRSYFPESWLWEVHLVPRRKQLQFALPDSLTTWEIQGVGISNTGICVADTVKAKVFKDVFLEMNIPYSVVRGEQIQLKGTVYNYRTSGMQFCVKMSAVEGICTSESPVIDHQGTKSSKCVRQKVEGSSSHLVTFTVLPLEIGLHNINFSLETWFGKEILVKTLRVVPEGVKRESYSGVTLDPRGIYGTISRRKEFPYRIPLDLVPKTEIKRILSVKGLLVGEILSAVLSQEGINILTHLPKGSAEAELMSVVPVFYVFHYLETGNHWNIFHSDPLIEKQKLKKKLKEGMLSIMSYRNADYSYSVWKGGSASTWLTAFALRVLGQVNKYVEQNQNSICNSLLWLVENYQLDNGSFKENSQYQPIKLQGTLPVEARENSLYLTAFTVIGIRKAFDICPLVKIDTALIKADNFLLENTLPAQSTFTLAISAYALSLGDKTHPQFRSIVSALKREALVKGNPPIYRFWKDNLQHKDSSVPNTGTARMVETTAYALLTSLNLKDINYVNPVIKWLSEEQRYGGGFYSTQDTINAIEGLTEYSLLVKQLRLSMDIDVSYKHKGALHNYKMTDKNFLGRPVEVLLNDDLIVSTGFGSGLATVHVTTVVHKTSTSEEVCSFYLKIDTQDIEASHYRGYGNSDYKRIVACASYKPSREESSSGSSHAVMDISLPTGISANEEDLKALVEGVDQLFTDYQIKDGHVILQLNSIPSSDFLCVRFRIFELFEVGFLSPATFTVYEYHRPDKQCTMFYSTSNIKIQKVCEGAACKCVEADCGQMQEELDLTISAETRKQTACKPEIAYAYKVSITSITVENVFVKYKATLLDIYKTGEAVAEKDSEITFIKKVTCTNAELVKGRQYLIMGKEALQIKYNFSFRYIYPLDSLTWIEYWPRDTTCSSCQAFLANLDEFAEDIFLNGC
Sequence of purified human C5 (P01031 19-1676): as above
T2 sequence (P01031 19-1676): as above

## COc1cc(CC(=O)N2CCOCC2)ccc1CN1CCCN(c2ccc(OC)c(OCCCC(C)(F)F)c2)C1=O [CU0145]
Human C5 [1]
  IC50: 15 nM
[2]
  solubility kinetic: 278 µM (≈ 160 µg/mL)
[3]
  Papp A→B at 3 μM: 16.8 ×10⁻⁶ cm/s
[4]
  efflux ratio at 3 μM: 83

## COc1ccc(NC(=O)NCc2ccccc2OC(F)F)cc1OCCCC(C)C [SM0104]
Human C5 [5]
  Kd: 210 nM
Human C5 [6]
  IC50: 558 nM

## CCCCCOc1cc(N2CCCN(Cc3ccnc4c3c(Cl)cn4CC(=O)N3CCC3)C2=O)ccc1OC [CU0560]
[7]
  Kd: 0.054 nM
[2]
  solubility kinetic: 31 µM (≈ 17.2 µg/mL)
[3]
  Papp A→B at 3 μM: 23 ×10⁻⁶ cm/s
[4]
  efflux ratio at 3 μM: 23

## COc1ccccc1CNC(=O)Nc1ccc(OC)c(OCCCC(C)C)c1 [SM0006]
Human C5 [5]
  Kd: 18 nM
Purified human C5
  IC50: 125 nM
Human C5 [6]
  IC50: 37.6 nM

## CCCCOc1cc(NC(=O)N[C@@H](CO)c2ccccc2)ccc1OC [SM0035]
Purified human C5
  IC50: 1180 nM
Human C5 [6]
  IC50: 328 nM

## CCCCCOc1cc(N2CCCN(Cc3ccc(CNC(C)=O)cc3OC)C2=O)ccc1OC [CU0160]
Human C5 [1]
  IC50: 23.5 nM
[2]
  solubility kinetic: 413 µM (≈ 200 µg/mL)
[3]
  Papp A→B at 3 μM: 21.6 ×10⁻⁶ cm/s
[4]
  efflux ratio at 3 μM: 61

## COc1cc(CC(=O)N(C)C)ccc1CN1CCCN(c2ccc(OC)c(OCCCC3CC3)c2)C1=O [CU0555]
[7]
  Kd: 1.06 nM
[3]
  Papp A→B at 3 μM: 23 ×10⁻⁶ cm/s
[4]
  efflux ratio at 3 μM: 15

## CCCCCOc1cc(N2CCCN(Cc3ccnc4c3c(Cl)cn4CC(=O)N(C)CC#N)C2=O)ccc1OC [CU0529]
[7]
  Kd: 0.322 nM
[2]
  solubility kinetic: 50 µM (≈ 28.4 µg/mL)
[3]
  Papp A→B at 3 μM: 17.1 ×10⁻⁶ cm/s
[4]
  efflux ratio at 3 μM: 75

## COc1cc(CC(=O)N[C@@H]2CN(C)C[C@@H]2F)ccc1CN1C(=O)N(c2ccc(OC)c(OCCCC3CC3)c2)CC[C@@H]1C [SC0109]
Human C5 [8]
  IC50: 1.2 nM
[3]
  Papp A→B at 3 μM: 5.7 ×10⁻⁶ cm/s
[4]
  efflux ratio at 3 μM: 144

## COc1cc(CC(=O)N(C)C)ccc1CN1CCCN(c2ccc(OC)c(OCCCC(C)(F)F)c2)C1=O [CU0140]
Human C5 [1]
  IC50: 15.8 nM
[2]
  solubility kinetic: 404 µM (≈ 216 µg/mL)
[3]
  Papp A→B at 3 μM: 26 ×10⁻⁶ cm/s
[4]
  efflux ratio at 3 μM: 63

## CCCCCOc1cc(N2CCCN(Cc3ccnc4c3c(Cl)cn4CC(=O)N3CC4CC(C3)O4)C2=O)ccc1OC [CU0506]
[3]
  Papp A→B at 3 μM: 21.1 ×10⁻⁶ cm/s
[4]
  efflux ratio at 3 μM: 59

## CCCCCOc1cc(N2CC[C@H](C)N(Cc3cccc4c3c(Cl)cn4CC(=O)N(C)C)C2=O)ccc1OC [SC0112]
[2]
  solubility kinetic: 13 µM (≈ 7.22 µg/mL)
[9]
  Kd: 0.28 nM
Human C5 [8]
  IC50: 1.3 nM
[3]
  Papp A→B at 3 μM: 16.4 ×10⁻⁶ cm/s
[4]
  efflux ratio at 3 μM: 12

## CCCCCOc1cc(N2CC[C@H](C)N(Cc3ccnc4c3c(Cl)cn4CC(=O)N3CC(O)C3)C2=O)ccc1OC [SC0120]
[2]
  solubility kinetic: 96 µM (≈ 56.1 µg/mL)
[9]
  Kd: 0.01 nM
Human C5 [8]
  IC50: 1.5 nM
[3]
  Papp A→B at 3 μM: 6.6 ×10⁻⁶ cm/s
[4]
  efflux ratio at 3 μM: 98

## CCCCCOc1cc(N2CCCN(Cc3ccnc4c3c(Cl)cn4CC(=O)N(C)C)C2=O)cnc1OC [CU0616]
[3]
  Papp A→B at 3 μM: 29 ×10⁻⁶ cm/s
[4]
  efflux ratio at 3 μM: 18

## CCCCCOc1cc(N2CC[C@@H](C)N(Cc3cccc4c3c(Cl)cn4CC(=O)N(C)C)C2=O)ccc1OC [SC0110]
Human C5 [8]
  IC50: 1.3 nM
[3]
  Papp A→B at 3 μM: 15.3 ×10⁻⁶ cm/s
[4]
  efflux ratio at 3 μM: 18

## CCCCCOc1cc(N2CCCN(Cc3ccnc4c3c(Cl)cn4CC(=O)N(C)C)C2=O)ncc1OC [CU0558]
[7]
  Kd: 0.152 nM
[2]
  solubility kinetic: 271 µM (≈ 147 µg/mL)
[3]
  Papp A→B at 3 μM: 25.2 ×10⁻⁶ cm/s
[4]
  efflux ratio at 3 μM: 9

## CCCCCOc1cc(N2CCCN(Cc3ccnc4c3c(Cl)cn4CC(=O)N(C)C)C2=O)ccc1OC [CU0261]
Human C5 [1]
  IC50: 11 nM
[2]
  solubility kinetic: 31 µM (≈ 16.8 µg/mL)
[3]
  Papp A→B at 3 μM: 26.1 ×10⁻⁶ cm/s
[4]
  efflux ratio at 3 μM: 17

## CCCCCOc1cc(N2CC[C@H](C)N(Cc3ccnc4c3c(Cl)cn4CC(=O)N3CC[C@H](N4CCOCC4)C3)C2=O)ccc1OC [SC0100]
Human C5 [8]
  IC50: 0.9 nM
[3]
  Papp A→B at 3 μM: 14.3 ×10⁻⁶ cm/s
[4]
  efflux ratio at 3 μM: 62

## CCCCCOc1cc(N2CC3(COC3)CN(Cc3ccccc3OC)C2=O)ccc1OC [SC0066]
[10]
  Kd: 43.7 nM
Human C5 [11]
  IC50: 39.7 nM

## CCCCCOc1cc(N2CCCN(Cc3ccnc4c3c(Cl)cn4CC(=O)N3C[C@H]4C[C@@H]3CO4)C2=O)ccc1OC [CU0510]
[3]
  Papp A→B at 3 μM: 22.7 ×10⁻⁶ cm/s
[4]
  efflux ratio at 3 μM: 71

## CCCCCOc1cc(N2CCCN(Cc3ccc(CNC(C)=O)cc3OC)C2=O)ncc1OC [CU0579]
[2]
  solubility kinetic: 339 µM (≈ 164 µg/mL)
[3]
  Papp A→B at 3 μM: 23.5 ×10⁻⁶ cm/s
[4]
  efflux ratio at 3 μM: 31

## COc1ccc(NC(=O)N[C@@H](CO)c2ccccc2OC)cc1OCCCC(C)C [SM0002]
Human C5 [5]
  Kd: 14 nM
Purified human C5
  IC50: 21.9 nM
Human C5 [6]
  IC50: 11.9 nM

## CCCCCOc1cc(N2CC3(CC3)CN(Cc3ccccc3OC)C2=O)ccc1OC [SC0064]
[10]
  Kd: 11.1 nM
Human C5 [11]
  IC50: 23.7 nM

## COc1ccc(N2CCCN(Cc3ccnc4c3c(Cl)cn4CC(=O)N(C)C)C2=O)cc1Br [CU0689]
[3]
  Papp A→B at 3 μM: 23.8 ×10⁻⁶ cm/s
[4]
  efflux ratio at 3 μM: 8

## COc1cc(CNC(C)=O)ccc1CN1CCCN(c2ccc(OC)c(OCCCC3CC3)c2)C1=O [CU0501]
[2]
  solubility kinetic: 195 µM (≈ 96.6 µg/mL)
[3]
  Papp A→B at 3 μM: 24.2 ×10⁻⁶ cm/s
[4]
  efflux ratio at 3 μM: 60

## CCCCCOc1cc(NC(=O)N(CC(=O)N2CCOCC2)Cc2cc(F)ccc2OC)ccc1OC [SM0210]
Human C5 [6]
  IC50: 2120 nM

## CCCCCOc1cc(NC(=O)N(CC(=O)O)Cc2cc(F)ccc2OC)ccc1OC [SM0204]
Human C5 [6]
  IC50: 753 nM

## CCCCCOc1cc(NC(=O)N(CCC(=O)NCc2ccncc2)Cc2cc(F)ccc2OC)ccc1OC [SM0215]
Human C5 [6]
  IC50: 244 nM
